Results as given in patent US11617726B2, “Method for preventing, treating, or ameliorating a microbial infection” (priority 2018, dated 2023).

Test system: Acinetobacter baumannii isolates
Experiment: Antimicrobial susceptibility test, disc diffusion method (CLSI M100-S24)
Type: cell-based
Set-up: key to Inhibition zone: “NZ” indicated that no zone of inhibition was observed
Conditions: for susceptibility category: ATM disc; for Inhibition zone: disc diffusion
Protocol: A total of 33 non-duplicate, non-consecutive clinical isolates of Multi-Drug Resistant (MDR) Acinetobacter baumannii were collected from burn wards (“AB1-AB33”). Acinetobacter baumannii ATCC BAA 747 and Pseudomonas aeruginosa ATCC 27853 were used as control strains. The isolates were stored at −80° C. in trypticase soy broth containing 20% glycerol.
Antimicrobial susceptibility tests of the collection of isolates were conducted using the disc diffusion method. The experiment was performed according to the recommendations and guidelines of Clinical Laboratory Standard Institutes (CLSI M100-S24; 2014). Clinical and Laboratory Standards Institute (CLSI), “Performance standards for antimicrobial susceptibility testing; twenty-fourth informational supplement,” Document M100-S24, Clinical and Laboratory Standards Institute (CLSI), Wayne, Pa., USA, 2014.
A panel of commercial antibiotic discs (Amoxicillin (AMX), Amoxicillin/clavulanic acid (AMX/CLA), Piperacillin (PIP), Piperacillin/Tazobactam (PIP/TAZ), Ceftazidime (CAZ), Cefotaxime (CTX), Cefepime (FEP), Cefoxitin (FOX), Aztreonam (ATM), Imipenem (IP), Gentamicin (GEN), Amikacin (AK), Neomycin (NEO), Levofloxacin (LEV), Chloramphenicol (CHL), Tetracycline (TET), sulfamethoxazole/trimethoprim (SUL/TRI) was used for susceptibility testing. All commercial antibiotic discs were purchased from BBL (Becton Dickinson, USA).
Forty grams of Mueller-Hinton Agar (MHA) were suspended in 1 Liter distilled water and then boiled to dissolve the powder completely. The medium was sterilized by autoclaving at 121° C. for 15 min. After autoclaving, the medium was cooled to 45° C. and 25 mL of molten agar media was poured into sterile Petri dishes (90 mm diameter) to give a depth of about 4 mm. The surface of the agar was dried to remove excess moisture before use. The plates were stored at 4-8° C. in sealed plastic bags if not used immediately.
The inoculum suspension was prepared by selecting three to five morphologically similar colonies from overnight growth (16-24 h of incubation) on blood agar medium. […] The suspension density was measured using a UV spectrophotometer calibrated with a 0.5 McFarland standard. The density of the suspension was adjusted to McFarland 0.5 by addition of saline or more microorganisms. The adjusted inoculum suspension was used within 60 min of preparation.
A sterile cotton swab was dipped into the bacterial suspension and the excess fluid was removed by turning the swab against the inside wall of the tube to avoid over-inoculation of plates. The inoculum was spread evenly over the entire surface of the agar plate by swabbing in three directions.
The predetermined panel of antimicrobial disks was applied firmly on the inoculated Mueller-Hinton agar surface within 15 min of inoculation of the plates by a disc dispenser device. A maximum of six disks were accommodated on a 90-mm circular plate.
Within 15 min of application of antimicrobial disks, the plates were inverted and incubated aerobically at 35-37° C. for 18-20 h.
After incubation, inhibition zones were measured at the point where no obvious growth is detected by the unaided eye when the plate is held about 30 cm from the eye. Inhibition zone diameters were measured to the nearest millimeter with a ruler. The plates were read from the back of the plate with reflected light against a dark background. Zone diameters were interpreted and categorized as susceptible “S”, intermediate “I”, or resistant “R” according to the CLSI clinical breakpoint tables (see Table 1 and Table 2).

With `C[C@H]1[C@H](NC(=O)/C(=N\OC(C)(C)C(=O)O)c2csc(N)n2)C(=O)N1S(=O)(=O)O` [ATM, Aztreonam] the susceptibility category (isolate AB1) was “R (Resistant ≤15)”, the Inhibition zone (isolate AB1) was “NZ” and the susceptibility category (isolate AB2) was “R (Resistant ≤15)”. For the same compound, the Inhibition zone (isolate AB2) was “NZ”, the susceptibility category (isolate AB3) was “R (Resistant ≤15)” and the Inhibition zone (isolate AB3) was “NZ”. For the same compound, the susceptibility category (isolate AB4) was “R (Resistant ≤15)”, the Inhibition zone (isolate AB4) was “NZ” and the susceptibility category (isolate AB5) was “R (Resistant ≤15)”. The Inhibition zone (isolate AB5) was “NZ”, the susceptibility category (isolate AB6) was “S (Sensitive ≥22)” and the Inhibition zone (isolate AB6) was 20 mm. For the same compound, the susceptibility category (isolate AB7) was “R (Resistant ≤15)”, the Inhibition zone (isolate AB7) was “NZ” and the susceptibility category (isolate AB8) was “R (Resistant ≤15)”. The Inhibition zone (isolate AB8) was “NZ”, the susceptibility category (isolate AB9) was “R (Resistant ≤15)” and the Inhibition zone (isolate AB9) was “NZ”. For the same compound, the susceptibility category (isolate AB10) was “R (Resistant ≤15)”, the Inhibition zone (isolate AB10) was 13 mm and the susceptibility category (isolate AB11) was “R (Resistant ≤15)”. The Inhibition zone (isolate AB11) was “NZ”, the susceptibility category (isolate AB12) was “R (Resistant ≤15)” and the Inhibition zone (isolate AB12) was “NZ”. The susceptibility category (isolate AB13) was “R (Resistant ≤15)”, the Inhibition zone (isolate AB13) was “NZ” and the susceptibility category (isolate AB14) was “R (Resistant ≤15)”. The Inhibition zone (isolate AB14) was “NZ”, the susceptibility category (isolate AB15) was “R (Resistant ≤15)” and the Inhibition zone (isolate AB15) was 11 mm. The susceptibility category (isolate AB16) was “S (Sensitive ≥22)”, the Inhibition zone (isolate AB16) was 33 mm and the susceptibility category (isolate AB17) was “R (Resistant ≤15)”. The Inhibition zone (isolate AB17) was 15 mm, the susceptibility category (isolate AB18) was “R (Resistant ≤15)” and the Inhibition zone (isolate AB18) was 10 mm. For the same compound, the susceptibility category (isolate AB19) was “R (Resistant ≤15)”, the Inhibition zone (isolate AB19) was 8 mm and the susceptibility category (isolate AB20) was “R (Resistant ≤15)”. For the same compound, the Inhibition zone (isolate AB20) was “NZ”, the susceptibility category (isolate AB21) was “R (Resistant ≤15)” and the Inhibition zone (isolate AB21) was 7 mm. The susceptibility category (isolate AB22) was “R (Resistant ≤15)”, the Inhibition zone (isolate AB22) was “NZ” and the susceptibility category (isolate AB23) was “R (Resistant ≤15)”. The Inhibition zone (isolate AB23) was “NZ”, the susceptibility category (isolate AB24) was “R (Resistant ≤15)” and the Inhibition zone (isolate AB24) was “NZ”. The susceptibility category (isolate AB25) was “R (Resistant ≤15)”, the Inhibition zone (isolate AB25) was 13 mm and the susceptibility category (isolate AB26) was “R (Resistant ≤15)”. For the same compound, the Inhibition zone (isolate AB26) was 12 mm, the susceptibility category (isolate AB27) was “R (Resistant ≤15)” and the Inhibition zone (isolate AB27) was “NZ”. The susceptibility category (isolate AB28) was “R (Resistant ≤15)”, the Inhibition zone (isolate AB28) was “NZ” and the susceptibility category (isolate AB29) was “R (Resistant ≤15)”. The Inhibition zone (isolate AB29) was “NZ”, the susceptibility category (isolate AB30) was “R (Resistant ≤15)” and the Inhibition zone (isolate AB30) was 9 mm. The susceptibility category (isolate AB31) was “R (Resistant ≤15)”, the Inhibition zone (isolate AB31) was “NZ” and the susceptibility category (isolate AB32) was “R (Resistant ≤15)”. For the same compound, the Inhibition zone (isolate AB32) was 8 mm, the susceptibility category (isolate AB33) was “R (Resistant ≤15)” and the Inhibition zone (isolate AB33) was 9 mm.
